Assays:
WT human TSPO [1] = biological target: T1, WT human TSPO (Homo sapiens, UniProt P30536); test: Competition radioligand binding vs [3H]PK 11195, membranes of transfected HEK-293T cells (WT TSPO); conditions: vs [3H]PK 11195 (10 nM), HEK-293T membranes, mean ± SEM; read-out: Ki WT hTSPO
T1 construct: expressed in transfected cells
Description: (§1) Binding affinities (Ki) to wild-type (WT) and A147T human TSPO were assessed using a previously published method. HEK-293T cells were stably transfected with WT and A147T TSPO. Membranes were isolated from each cell line using an Ultra-Turrax hand-held homogeniser. These cells have been previously validated as an in vitro model for low- and high-affinity TSPO binding. […] Non-specific binding was determined using a saturating concentration (1 µM) of non-tritiated PK 11195. This non-specific binding contributed less than 10% of total binding. Reactions were halted by filtering through a 96-well glass-fibre filter plate (Millipore), followed by eight washes with ice-cold 50 mM Tris HCl. Microscint 0 was added to the plate and resultant radioactivity-related photons were collected by a Microbeta 2450 (PerkinElmer). Ki values were fit to a competition binding curve fit on non-specific binding-corrected data using GraphPad Prism 10.0 (GraphPad). Results are presented as mean ± standard error of the mean (SEM) from at least three independent experiments. Binding affinities (Ki) to rat TSPO were measured in duplicate by Eurofins Panlabs Discovery Services (assay #226700) (Supplementary Fig. 12). Single-dose (10 µM) off-target in vitro screening was performed in duplicate by Eurofins Panlabs Discovery Services (Supplementary Table 5).
(§2) In vitro binding affinities (Ki) for human TSPO were initially assessed using a competition radioligand assay against [^3H]PK 11195 in our well-characterised assay using membranes isolated from transfected HEK-293T cells overexpressing either WT or A147T TSPO [32]. This structure-activity relationship study will be reported in a separate publication. […] Data for DPA-713 and DPA-714 are included for comparison.

WT human TSPO [2] = biological target: T2, WT human TSPO (Homo sapiens, UniProt P30536, T147A); test: as above; conditions: DPA-813 vs DPA-713; DPA-814 vs DPA-714
T2 construct: expressed in transfected cells
T2 sequence (P30536 whole entry T147A): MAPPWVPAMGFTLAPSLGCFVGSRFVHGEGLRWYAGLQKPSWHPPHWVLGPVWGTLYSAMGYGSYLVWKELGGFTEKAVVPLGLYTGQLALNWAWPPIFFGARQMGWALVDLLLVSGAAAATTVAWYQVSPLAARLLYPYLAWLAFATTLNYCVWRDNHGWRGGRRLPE
Description: as §1, §2

rat TSPO = biological target: T3, rat TSPO (Rattus norvegicus, UniProt P16257); test: Competitive binding to rat TSPO vs [3H]PK 11195 (Eurofins assay #226700, rat heart membranes); conditions: vs [3H]PK 11195, result in words
T3 construct: Heart of male Wistar derived rats weighing 175 ± 25 g are used to prepare peripheral benzodiazepine membrane receptors [TSPO]; tissue Eurofins Panlabs Discovery Services assay #226700; host or cells: rat heart (male Wistar derived)
Description: as §1
Supplementary Figure 12 Dose-response curves and binding affinities of DPA-813 and DPA-814 showing competitive binding to rat TSPO vs [^3H]PK 11195. Method from Eurofins: Heart of male Wistar derived rats weighing 175 ± 25 g are used to prepare peripheral benzodiazepine membrane receptors [TSPO] in modified Tris-HCl buffer pH 7.5. A 0.25 mg aliquot is incubated with 0.3 nM [^3H]PK 11195 for 15 minutes at 25 °C. Non-specific binding is estimated in the presence of 100 μM Dipyridamole. Membranes are filtered and washed, the filters are then counted to determine [^3H]PK 11195 specifically bound.

A147T human TSPO = biological target: T4, A147T human TSPO (Homo sapiens, UniProt P30536); test: Competition radioligand binding vs [3H]PK 11195, membranes of transfected HEK-293T cells (A147T TSPO); conditions: for increase in affinity to A147T TSPO versus parent compound: DPA-813 vs DPA-713, DPA-814 vs DPA-714; for Ki: vs [3H]PK 11195 (10 nM), HEK-293T membranes, mean ± SEM, read-out: Ki A147T hTSPO
T4 construct: expressed in transfected cells
T4 sequence (P30536 whole entry, stated change not applied): as the sequence (P30536 whole entry T147A) above, with A147T counted along it
Description: as §1, §2

[3] = system: Central Benzodiazepine Receptor; test: Off-target screen, 10 µM single dose (Eurofins); parameters: species or system human; conditions: n = 2, inhibition of agonist radioligand binding
Description: as §1, with “Results are presented as mean ± standard error of the mean (SEM) from at least three independent experiments.” left out, “Single-dose (10 µM) off-target in vitro screening was performed in duplicate by Eurofins Panlabs Discovery Services (Supplementary Table 5).” left out
(§3) Supplementary Table 5. […] 10 μM single dose (n = 2) screen performed by Eurofins Panlabs Discovery. ^a All targets are human receptors. ^b Inhibition of antagonist radioligand binding. ^c Inhibition of agonist radioligand binding. ^d Enzymatic functional readout.

MAO-B = biological target: T5, MAO-B (Homo sapiens, UniProt P27338); test: Off-target screen, 10 µM single dose (Eurofins), enzymatic functional readout; format: biochemical; conditions: n = 2, read-out: % Binding Inhibition at 10 μM, MAO-B
T5 construct: purchased Eurofins Panlabs Discovery Services
Description: as §1, with “Results are presented as mean ± standard error of the mean (SEM) from at least three independent experiments.” left out, “Single-dose (10 µM) off-target in vitro screening was performed in duplicate by Eurofins Panlabs Discovery Services (Supplementary Table 5).” left out
as §3

[4] = Lipophilicity (logD at pH 7.4) by gradient HPLC; format: physicochemical; conditions: gradient HPLC retention correlated with standard compounds; pH 7.4, gradient HPLC; read-out: logD7.4
From the text: Partition coefficient values (logD) were estimated at pH 7.4 by correlating chromatographic retention properties against the characteristics of a series of standard compounds with known partition coefficient values. The method employed a gradient HPLC based on a previously published method.

5-HT2A = biological target: T6, 5-HT2A (Homo sapiens, UniProt P28223); test: Off-target screen, 10 µM single dose (Eurofins); conditions: read-out: % Binding Inhibition at 10 μM, 5-HT2A
T6 construct: purchased Eurofins Panlabs Discovery Services
T6 sequence (P28223 whole entry): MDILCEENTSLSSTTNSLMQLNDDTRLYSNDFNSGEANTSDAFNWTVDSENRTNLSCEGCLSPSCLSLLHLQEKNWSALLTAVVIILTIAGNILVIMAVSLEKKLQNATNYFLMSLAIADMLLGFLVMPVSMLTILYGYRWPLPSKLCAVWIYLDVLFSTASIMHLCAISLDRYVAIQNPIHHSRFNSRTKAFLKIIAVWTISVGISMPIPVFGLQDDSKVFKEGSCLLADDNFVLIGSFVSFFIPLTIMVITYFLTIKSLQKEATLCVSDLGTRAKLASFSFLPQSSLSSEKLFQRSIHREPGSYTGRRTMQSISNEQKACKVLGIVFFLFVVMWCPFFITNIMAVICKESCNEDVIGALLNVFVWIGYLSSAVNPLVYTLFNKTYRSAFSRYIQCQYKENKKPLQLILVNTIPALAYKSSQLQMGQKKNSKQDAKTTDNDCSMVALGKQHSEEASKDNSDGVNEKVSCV
Description: as §1
(§4) Supplementary Table 5. Off-target binding to common CNS targets. 10 μM single dose (n = 2) screen performed by Eurofins Panlabs Discovery. ^a All targets are human receptors. ^b Inhibition of antagonist radioligand binding. ^c Inhibition of agonist radioligand binding. ^d Enzymatic functional readout.

SERT = biological target: T7, SERT (Homo sapiens, UniProt P31645); test: Off-target screen, 10 µM single dose (Eurofins); conditions: read-out: % Binding Inhibition at 10 μM, SERT
T7 construct: purchased Eurofins Panlabs Discovery Services
T7 sequence (P31645 whole entry): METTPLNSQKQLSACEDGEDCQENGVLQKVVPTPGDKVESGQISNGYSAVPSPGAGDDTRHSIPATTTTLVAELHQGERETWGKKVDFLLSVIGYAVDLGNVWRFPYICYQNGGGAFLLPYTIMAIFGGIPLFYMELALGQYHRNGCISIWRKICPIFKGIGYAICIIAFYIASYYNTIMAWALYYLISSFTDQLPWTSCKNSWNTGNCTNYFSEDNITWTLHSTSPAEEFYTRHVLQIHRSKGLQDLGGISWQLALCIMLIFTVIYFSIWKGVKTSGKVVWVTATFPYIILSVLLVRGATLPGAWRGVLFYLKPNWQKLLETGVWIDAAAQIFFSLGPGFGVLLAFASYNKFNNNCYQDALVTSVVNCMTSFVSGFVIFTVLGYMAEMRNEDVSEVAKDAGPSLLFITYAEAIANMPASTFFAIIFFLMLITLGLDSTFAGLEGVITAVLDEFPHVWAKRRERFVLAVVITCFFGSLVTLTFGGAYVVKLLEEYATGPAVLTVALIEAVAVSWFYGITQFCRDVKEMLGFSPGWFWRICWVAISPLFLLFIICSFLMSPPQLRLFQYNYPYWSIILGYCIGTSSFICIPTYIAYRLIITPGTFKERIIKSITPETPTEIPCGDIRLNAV
Description: as §1, §4

NET = biological target: T8, NET (Homo sapiens, UniProt P23975); test: Off-target screen, 10 µM single dose (Eurofins); conditions: read-out: % Binding Inhibition at 10 μM, NET
T8 construct: purchased Eurofins Panlabs Discovery Services
T8 sequence (P23975 whole entry): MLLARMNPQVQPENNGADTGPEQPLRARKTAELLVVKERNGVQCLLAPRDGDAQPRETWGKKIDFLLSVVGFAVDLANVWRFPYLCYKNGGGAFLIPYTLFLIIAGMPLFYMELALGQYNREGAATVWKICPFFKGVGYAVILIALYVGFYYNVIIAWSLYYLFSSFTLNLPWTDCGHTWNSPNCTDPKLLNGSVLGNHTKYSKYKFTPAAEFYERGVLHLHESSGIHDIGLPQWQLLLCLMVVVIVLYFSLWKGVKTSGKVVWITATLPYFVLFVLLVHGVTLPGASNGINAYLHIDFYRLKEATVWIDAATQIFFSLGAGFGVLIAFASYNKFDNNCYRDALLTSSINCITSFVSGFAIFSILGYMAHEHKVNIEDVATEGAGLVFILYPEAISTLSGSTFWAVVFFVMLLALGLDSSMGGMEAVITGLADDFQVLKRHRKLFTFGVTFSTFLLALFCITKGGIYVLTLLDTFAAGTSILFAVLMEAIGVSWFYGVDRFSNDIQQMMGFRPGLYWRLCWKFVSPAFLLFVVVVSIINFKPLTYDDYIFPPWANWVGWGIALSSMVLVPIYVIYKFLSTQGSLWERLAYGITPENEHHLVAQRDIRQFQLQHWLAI
Description: as §1, §4

nAChR (α4/β2) = biological target: T9, nAChR (α4/β2) (Homo sapiens, UniProt P17787+P43681); test: Off-target screen, 10 µM single dose (Eurofins); conditions: read-out: % Binding Inhibition at 10 μM, nAChR (α4/β2)
T9 construct: purchased Eurofins Panlabs Discovery Services
Description: as §1, §4

DAT = biological target: T10, DAT (Homo sapiens, UniProt Q01959); test: Off-target screen, 10 µM single dose (Eurofins); conditions: read-out: % Binding Inhibition at 10 μM, DAT
T10 construct: purchased Eurofins Panlabs Discovery Services
T10 sequence (Q01959 whole entry): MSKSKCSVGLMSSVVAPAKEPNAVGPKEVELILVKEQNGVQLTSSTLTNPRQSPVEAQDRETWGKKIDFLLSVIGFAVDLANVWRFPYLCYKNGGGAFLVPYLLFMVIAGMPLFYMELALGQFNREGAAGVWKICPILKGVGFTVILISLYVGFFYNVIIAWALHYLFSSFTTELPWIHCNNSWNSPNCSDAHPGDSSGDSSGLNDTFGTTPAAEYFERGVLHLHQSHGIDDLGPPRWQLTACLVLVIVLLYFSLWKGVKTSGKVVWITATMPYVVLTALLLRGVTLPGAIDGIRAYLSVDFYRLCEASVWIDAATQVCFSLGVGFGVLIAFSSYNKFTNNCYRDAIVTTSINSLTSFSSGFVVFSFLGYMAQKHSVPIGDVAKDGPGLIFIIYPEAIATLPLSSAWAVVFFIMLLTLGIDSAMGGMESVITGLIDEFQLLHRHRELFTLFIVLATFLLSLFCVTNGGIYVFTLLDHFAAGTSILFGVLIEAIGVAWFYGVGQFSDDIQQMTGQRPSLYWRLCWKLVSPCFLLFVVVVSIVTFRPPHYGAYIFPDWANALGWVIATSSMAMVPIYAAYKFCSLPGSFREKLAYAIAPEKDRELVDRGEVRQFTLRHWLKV
Description: as §1, §4

5-HT2B = biological target: T11, 5-HT2B (Homo sapiens, UniProt P41595); test: Off-target screen, 10 µM single dose (Eurofins); conditions: read-out: % Binding Inhibition at 10 μM, 5-HT2B
T11 construct: purchased Eurofins Panlabs Discovery Services
T11 sequence (P41595 whole entry): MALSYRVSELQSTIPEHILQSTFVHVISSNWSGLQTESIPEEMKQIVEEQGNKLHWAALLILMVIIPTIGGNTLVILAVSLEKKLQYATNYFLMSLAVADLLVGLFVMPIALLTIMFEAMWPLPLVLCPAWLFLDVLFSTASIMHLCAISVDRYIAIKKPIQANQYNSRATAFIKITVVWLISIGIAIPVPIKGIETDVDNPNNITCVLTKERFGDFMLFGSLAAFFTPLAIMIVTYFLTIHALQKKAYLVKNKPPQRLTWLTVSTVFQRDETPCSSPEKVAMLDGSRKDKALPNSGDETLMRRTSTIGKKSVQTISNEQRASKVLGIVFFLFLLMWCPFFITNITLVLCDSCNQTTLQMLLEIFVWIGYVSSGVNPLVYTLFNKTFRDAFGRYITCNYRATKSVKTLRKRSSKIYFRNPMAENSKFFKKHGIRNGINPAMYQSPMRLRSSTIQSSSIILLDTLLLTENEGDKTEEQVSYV
Description: as §1, §4

M1 = biological target: T12, M1 (Homo sapiens, UniProt P11229); test: Off-target screen, 10 µM single dose (Eurofins); conditions: read-out: % Binding Inhibition at 10 μM, M1
T12 construct: purchased Eurofins Panlabs Discovery Services
T12 sequence (P11229 whole entry): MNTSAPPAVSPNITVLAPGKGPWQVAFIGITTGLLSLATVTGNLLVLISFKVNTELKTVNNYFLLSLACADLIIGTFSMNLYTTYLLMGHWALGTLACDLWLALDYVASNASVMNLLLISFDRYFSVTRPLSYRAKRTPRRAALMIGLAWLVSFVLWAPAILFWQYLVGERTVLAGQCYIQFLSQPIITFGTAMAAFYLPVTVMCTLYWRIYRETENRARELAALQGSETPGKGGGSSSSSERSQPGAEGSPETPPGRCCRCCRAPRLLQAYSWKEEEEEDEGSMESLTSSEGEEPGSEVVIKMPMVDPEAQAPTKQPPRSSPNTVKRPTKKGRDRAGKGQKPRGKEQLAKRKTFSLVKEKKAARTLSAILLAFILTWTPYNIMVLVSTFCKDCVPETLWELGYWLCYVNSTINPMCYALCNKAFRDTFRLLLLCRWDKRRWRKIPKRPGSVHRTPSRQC
Description: as §1, §4

MOP = biological target: T13, MOP (Homo sapiens, UniProt P35372); test: Off-target screen, 10 µM single dose (Eurofins); conditions: read-out: % Binding Inhibition at 10 μM, MOP
T13 construct: purchased Eurofins Panlabs Discovery Services
T13 sequence (P35372 whole entry): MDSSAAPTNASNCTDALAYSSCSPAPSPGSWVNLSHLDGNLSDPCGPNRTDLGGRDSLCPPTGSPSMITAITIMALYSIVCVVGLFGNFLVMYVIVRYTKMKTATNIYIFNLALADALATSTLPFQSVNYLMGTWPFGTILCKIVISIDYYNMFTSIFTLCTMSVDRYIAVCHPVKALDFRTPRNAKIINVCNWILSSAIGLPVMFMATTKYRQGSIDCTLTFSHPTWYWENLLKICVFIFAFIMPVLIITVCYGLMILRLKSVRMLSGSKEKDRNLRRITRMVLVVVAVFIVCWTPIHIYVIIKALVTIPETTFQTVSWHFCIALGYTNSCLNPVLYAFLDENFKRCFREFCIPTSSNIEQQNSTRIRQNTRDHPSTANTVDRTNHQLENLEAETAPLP
Description: as §1, §4

D2L = biological target: T14, D2L (Homo sapiens, UniProt P14416); test: Off-target screen, 10 µM single dose (Eurofins); conditions: read-out: % Binding Inhibition at 10 μM, D2L
T14 construct: purchased Eurofins Panlabs Discovery Services
Description: as §1, §4

CB2 = biological target: T15, CB2 (Homo sapiens, UniProt P34972); test: Off-target screen, 10 µM single dose (Eurofins); conditions: read-out: % Binding Inhibition at 10 μM, CB2
T15 construct: purchased Eurofins Panlabs Discovery Services
Description: as §1, §4

β2 Adrenergic receptor = biological target: T16, β2 Adrenergic receptor (Homo sapiens, UniProt P07550); test: Off-target screen, 10 µM single dose (Eurofins); conditions: read-out: % Binding Inhibition at 10 μM, β2 Adrenergic receptor
T16 construct: purchased Eurofins Panlabs Discovery Services
T16 sequence (P07550 whole entry): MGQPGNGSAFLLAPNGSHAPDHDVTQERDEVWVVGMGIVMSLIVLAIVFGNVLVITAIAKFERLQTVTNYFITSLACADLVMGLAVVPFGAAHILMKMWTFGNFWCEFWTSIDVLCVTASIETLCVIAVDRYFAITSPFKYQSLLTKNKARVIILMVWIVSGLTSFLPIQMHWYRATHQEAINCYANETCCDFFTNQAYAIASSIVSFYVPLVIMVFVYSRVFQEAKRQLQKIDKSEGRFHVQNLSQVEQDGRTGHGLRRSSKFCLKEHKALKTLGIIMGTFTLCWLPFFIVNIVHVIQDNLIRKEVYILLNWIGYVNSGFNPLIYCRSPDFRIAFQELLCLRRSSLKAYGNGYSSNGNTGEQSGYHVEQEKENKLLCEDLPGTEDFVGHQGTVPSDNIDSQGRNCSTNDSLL
Description: as §1, §4

CB1 = biological target: T17, CB1 (Homo sapiens, UniProt P21554); test: Off-target screen, 10 µM single dose (Eurofins); conditions: read-out: % Binding Inhibition at 10 μM, CB1
T17 construct: purchased Eurofins Panlabs Discovery Services
Description: as §1, §4

D1 = biological target: T18, D1 (Homo sapiens, UniProt P21728); test: Off-target screen, 10 µM single dose (Eurofins); conditions: read-out: % Binding Inhibition at 10 μM, D1
T18 construct: purchased Eurofins Panlabs Discovery Services
T18 sequence (P21728 whole entry): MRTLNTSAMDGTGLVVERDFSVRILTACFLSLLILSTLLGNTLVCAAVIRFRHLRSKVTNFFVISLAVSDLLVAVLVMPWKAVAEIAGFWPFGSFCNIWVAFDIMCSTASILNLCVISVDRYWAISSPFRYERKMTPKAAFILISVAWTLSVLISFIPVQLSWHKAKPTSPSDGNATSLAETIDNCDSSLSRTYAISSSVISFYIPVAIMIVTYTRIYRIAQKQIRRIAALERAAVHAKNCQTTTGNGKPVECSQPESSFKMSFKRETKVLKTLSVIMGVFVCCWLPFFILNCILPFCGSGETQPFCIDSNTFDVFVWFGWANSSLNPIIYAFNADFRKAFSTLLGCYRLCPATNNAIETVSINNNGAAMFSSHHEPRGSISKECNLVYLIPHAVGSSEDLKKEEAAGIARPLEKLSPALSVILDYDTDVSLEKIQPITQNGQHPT
Description: as §1, §4

A147T TSPO = system: A147T TSPO; parameters: method as in PMID 30900397; conditions: cited from earlier work

T1 sequence (P30536 whole entry T147A): as the sequence (P30536 whole entry T147A) above

SMILES | Ki (WT human TSPO [1]) | increase in affinity to WT TSPO versus parent compound (WT human TSPO [2]) | binding affinity to rat TSPO (rat TSPO) | increase in affinity to A147T TSPO versus parent compound (A147T human TSPO) | Ki (A147T human TSPO) | % Binding Inhibition at 10 μM, Central Benzodiazepine Receptor [3] | inhibition at 10 µM (MAO-B) | chromatographic logD [4] | inhibition at 10 µM (5-HT2A) | inhibition at 10 µM (SERT) | inhibition at 10 µM (NET) | inhibition at 10 µM (nAChR (α4/β2)) | inhibition at 10 µM (DAT) | inhibition at 10 µM (5-HT2B) | inhibition at 10 µM (M1) | inhibition at 10 µM (MOP) | inhibition at 10 µM (D2L) | inhibition at 10 µM (CB2) | inhibition at 10 µM (β2 Adrenergic receptor) | inhibition at 10 µM (CB1) | other results
COc1ccc(-c2nn3c(C)cc(C)nc3c2CC(=O)N(C)c2ccccc2)cc1 [DPA-813] | 6.2 ± 1.9 nM | ~ 3 fold | subnanomolar | ~ 32 fold | 3.1 ± 0.9 nM | 51% | 10% | 3.6 | 1% | 4% | 3% | 4% | 10% | 25% | -13% | 15% | 10% | -16% | -1% | 4% | inhibition at 10 µM (D1): 13%
Cc1cc(C)n2nc(-c3ccc(OCCF)cc3)c(CC(=O)N(C)c3ccccc3)c2n1 [DPA-814] | 7.3 ± 0.5 nM | 3 fold | subnanomolar | 46 fold | 5.7 ± 1.8 nM | 18% | 47% | 3.7 | 4% | 2% | 4% | 1% | 7% | 30% | -14% | 24% | 11% | -22% | 0% | -6% | inhibition at 10 µM (D1): 24%
CCN(CC)C(=O)[C@H]1CCCc2c1c1c(OC)cccc1n2CC[18F] [[^18F]GE180] |  |  |  |  |  |  |  |  |  |  |  |  |  |  |  |  |  |  |  |  | reduction in affinity for A147T TSPO in vitro (A147T TSPO): 5 fold
